Usually IC50 stands for the concentration needed to halve the response being measured.

Consider 1 molecule from article PMC12220852, “An adamantane‐based ligand as a novel chemical tool for thermosensory TRPM8 channel therapeutic modulation” (The Febs Journal, 2025).

Experiment [1] concerns the target T1, hTRPA1 (Homo sapiens, UniProt O75762).
T1 construct: expressed in transfected cells; host or cells: HEK293 (transient, Lipofectamine 3000)
Nature of the experiment: Whole-cell patch-clamp of AITC-evoked currents in HEK293 cells expressing hTRPA1. The format is cell-based. The following applies: −60 mV. As to the method: To evaluate receptor selectivity, we investigated the activity of compound 23 on recombinant hTRPV1 and hTRPA1 channels recombinantly expressed in HEK293 cells (Fig. 4). We choose these thermosensory channels because of their structural similarity and expression in peripheral nociceptive terminals. In addition, some ligand cross‐interaction within these channels has been reported.
Recording through patch‐clamp techniques was performed on HEK293 cells cultured in DMEM GlutaMax with 10% FBS and 1% P/S. The cell lines were authenticated following the standardization of STR Profiling guidelines (ANSI/ATCC ASN‐0002‐2022) using the CLA Identifier Plus PCR Amplification Kit (Thermo Fisher‐A44660) to analyze 16 highly variant human STRs. The cells were confirmed to be mycoplasma‐free. These cells were transiently transfected with plasmids encoding hTRPV1, hTRPM8, or hTRPA1 using Lipofectamine 3000. Transfected cells were seeded on 12 mm Ø glass coverslips treated with poly‐L‐lysine solution and recorded 2 days post‐transfection. The intracellular pipette solution included (in mM) 150 NaCl, 3 MgCl2, 5 EGTA, and 10 HEPES, pH 7.2 with CsOH, while the extracellular solution contained (in mM) 150 NaCl, 6 CsCl, 1 MgCl2, 1.5 CaCl2, 10 glucose, and 10 HEPES, pH 7.4 with NaOH. An EPC‐10 amplifier with Patchmaster software was used in whole‐cell experiments. Patch pipettes, created from thin‐wall borosilicate capillary glass tubing, were pulled with a Micropipette puller to a final resistance of 2–8 MΩ when filled with the internal solution. Recordings were acquired at 10 kHz and low‐pass filtered at 3 kHz, discarding recordings with leak currents > 200pA or series resistance > 20 MΩ. In voltage‐clamp recordings, cells were held at a constant potential, and the application of modulators was carried out using a gravity‐driven perfusion system. […] Leak currents were not subtracted, and conductance was calculated using the equation: G = I/(V − V r), where I is the measured ionic current, V is the applied voltage, and V r is the reversal potential that for the ionic conditions used was set to 0 mV. […]

Experiment [2] deals with T2, recombinant human TRPM8 stably expressed in HEK293 cells (hTRPM8) (Homo sapiens, UniProt Q7Z2W7).
T2 construct: expressed in transfected cells
As to the kind of experiment: Ca2+ microfluorimetry screen for agonist/antagonist activity in hTRPM8-HEK293 cells. The class given is cell-based. As to conditions: agonists vs WS-12, antagonists vs WS-12 response, read-out: Efficacy (percentage of maximal activation or blockade).

Molecules are shown by their SMILES.

T1 sequence (O75762 whole entry): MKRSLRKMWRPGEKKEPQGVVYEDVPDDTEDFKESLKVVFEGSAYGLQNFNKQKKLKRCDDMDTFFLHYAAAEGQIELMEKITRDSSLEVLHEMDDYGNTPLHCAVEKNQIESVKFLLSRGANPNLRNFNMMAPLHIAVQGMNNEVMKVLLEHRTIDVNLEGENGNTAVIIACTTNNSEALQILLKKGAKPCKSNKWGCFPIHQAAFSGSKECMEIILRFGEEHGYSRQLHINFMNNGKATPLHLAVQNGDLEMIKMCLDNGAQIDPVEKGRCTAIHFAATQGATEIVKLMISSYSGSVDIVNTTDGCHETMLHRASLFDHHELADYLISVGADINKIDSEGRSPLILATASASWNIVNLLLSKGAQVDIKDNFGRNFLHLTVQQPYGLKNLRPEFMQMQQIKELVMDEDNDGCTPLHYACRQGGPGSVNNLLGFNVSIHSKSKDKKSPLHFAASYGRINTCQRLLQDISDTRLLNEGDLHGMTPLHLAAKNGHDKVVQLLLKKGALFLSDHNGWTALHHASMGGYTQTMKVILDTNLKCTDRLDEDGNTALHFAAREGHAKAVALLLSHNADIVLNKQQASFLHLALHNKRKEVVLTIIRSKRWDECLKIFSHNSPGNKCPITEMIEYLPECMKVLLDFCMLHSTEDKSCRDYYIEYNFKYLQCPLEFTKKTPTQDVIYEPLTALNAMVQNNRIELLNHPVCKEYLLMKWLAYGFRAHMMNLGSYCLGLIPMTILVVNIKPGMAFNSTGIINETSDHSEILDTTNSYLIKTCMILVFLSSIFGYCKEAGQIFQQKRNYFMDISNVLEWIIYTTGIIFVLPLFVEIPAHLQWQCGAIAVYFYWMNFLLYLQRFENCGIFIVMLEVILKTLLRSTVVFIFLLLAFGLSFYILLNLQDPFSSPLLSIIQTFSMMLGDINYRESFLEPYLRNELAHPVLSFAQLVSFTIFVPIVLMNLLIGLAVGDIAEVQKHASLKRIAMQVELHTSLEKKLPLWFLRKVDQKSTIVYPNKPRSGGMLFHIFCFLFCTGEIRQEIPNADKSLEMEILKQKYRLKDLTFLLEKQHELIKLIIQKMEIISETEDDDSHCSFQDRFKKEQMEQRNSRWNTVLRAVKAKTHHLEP
T2 sequence (Q7Z2W7 whole entry): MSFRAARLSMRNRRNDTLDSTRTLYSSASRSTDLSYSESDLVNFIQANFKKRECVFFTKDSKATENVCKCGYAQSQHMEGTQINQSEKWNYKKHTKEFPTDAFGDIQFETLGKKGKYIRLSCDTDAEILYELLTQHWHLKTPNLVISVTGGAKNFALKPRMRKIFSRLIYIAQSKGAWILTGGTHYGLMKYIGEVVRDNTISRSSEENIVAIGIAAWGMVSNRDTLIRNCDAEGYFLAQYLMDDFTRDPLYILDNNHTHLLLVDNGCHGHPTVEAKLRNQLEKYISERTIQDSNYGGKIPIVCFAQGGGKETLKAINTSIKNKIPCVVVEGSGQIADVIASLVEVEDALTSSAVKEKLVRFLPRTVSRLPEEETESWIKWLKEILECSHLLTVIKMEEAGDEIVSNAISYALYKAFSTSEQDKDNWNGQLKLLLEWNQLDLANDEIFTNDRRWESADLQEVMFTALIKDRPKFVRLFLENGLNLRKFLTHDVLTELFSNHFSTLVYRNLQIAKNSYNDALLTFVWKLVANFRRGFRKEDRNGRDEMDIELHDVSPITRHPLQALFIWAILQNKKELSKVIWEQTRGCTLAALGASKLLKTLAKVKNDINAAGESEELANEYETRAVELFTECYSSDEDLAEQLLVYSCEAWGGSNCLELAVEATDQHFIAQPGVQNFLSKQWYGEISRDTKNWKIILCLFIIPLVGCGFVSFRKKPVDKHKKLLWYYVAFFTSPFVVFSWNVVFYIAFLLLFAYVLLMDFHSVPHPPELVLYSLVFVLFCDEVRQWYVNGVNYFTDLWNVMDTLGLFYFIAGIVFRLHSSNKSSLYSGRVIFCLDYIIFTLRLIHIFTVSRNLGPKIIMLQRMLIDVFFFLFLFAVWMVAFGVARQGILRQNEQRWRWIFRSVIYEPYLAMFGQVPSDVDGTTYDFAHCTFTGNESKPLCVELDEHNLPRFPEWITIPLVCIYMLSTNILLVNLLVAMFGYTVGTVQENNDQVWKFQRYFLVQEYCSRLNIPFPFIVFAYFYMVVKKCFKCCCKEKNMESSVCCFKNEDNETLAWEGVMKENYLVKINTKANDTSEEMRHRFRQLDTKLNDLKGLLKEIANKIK

On to `O=C(COC(=O)c1ccccc1-c1ccccc1)NC12CC3CC(CC(C3)C1)C2` [Compound 23, 2‐((3S,5S,7S)‐adamantan‐1‐ylamino)‐2‐oxoethyl [1,1′‐biphenyl]‐2‐carboxylate], for which the “block of hTRPA1‐evoked (AITC) current” value in experiment [1] (5 μM compound, 60 μM AITC) is recorded as “≈ 60%”. Moreover, the 50% inhibitory concentration (IC50) in experiment [1] (AITC-evoked current, n = 8, read-out: IC50 of hTRPA1 current blockade) stood at 3.04 ± 2.01 µM. In addition, the Emax in experiment [2] turned out to be 100%.
